Measured values taken from patent publication US20060069132A1, “Azolecarboxamide herbicides” (priority 2004, published 2006).

How the values were obtained:
kochia = experiment: Test C pre-/postemergence herbicide test; type: in vivo, Kochia scoparia
In short: (§1)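 Greenhouse-grown plants were evaluated visually 12 to 14 days after treatment, with 100 meaning complete control and 0 no effect. Application was preemergence, or postemergence at 2 to 18 cm.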

woolly cupgrass = experiment: Test C pre-/postemergence herbicide test; type: in vivo, Eriochloa villosa; conditions: for Plant response rating, Cupgrass, Woolly: visual, 12 to 14 days
In short: as §1

[1] = system: smallflower umbrella sedge; experiment: Test C flooded paddy test; type: in vivo, Cyperus difformis
ducksalad = experiment: Test C flooded paddy test; type: in vivo, Heteranthera limosa
goosegrass = experiment: Test C pre-/postemergence herbicide test; type: in vivo, Eleusine indica
In short: as §1

cocklebur = experiment: Test C pre-/postemergence herbicide test; type: in vivo, Xanthium strumarium; conditions: for Plant response rating, Cocklebur: visual, 12 to 14 days
In short: as §1

redroot pigweed = experiment: Test A pre-/postemergence herbicide test; type: in vivo, Amaranthus retroflexus
In short: (§2)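 Plants are held in greenhouse about ten days after treatment, then compared with untreated controls and scored 0 (no effect) to 100 (complete control). Preemergence dosing is a directed soil spray on sown sandy loam; postemergence dosing is spray to runoff at 2–10 cm height.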

barnyardgrass = experiment: Test A pre-/postemergence herbicide test; type: in vivo, Echinochloa crus-galli
In short: as §2

giant foxtail = experiment: Test A pre-/postemergence herbicide test; type: in vivo, Setaria faberi
In short: as §2

lambsquarters = experiment: Test C pre-/postemergence herbicide test; type: in vivo, Chenopodium album
In short: as §1

bermudagrass = experiment: Test C pre-/postemergence herbicide test; type: in vivo, Cynodon dactylon; conditions: for Plant response rating, Bermudagrass: visual, 12 to 14 days
In short: as §1

morningglory = experiment: Test C pre-/postemergence herbicide test; type: in vivo, Ipomoea coccinea; design: key to Plant response rating, Morningglory: 0 = no effect, 100 = complete control
In short: as §1

[2] = 125 g ai/ha, scale 0 (no effect) to 100 (complete control), visual, 12 to 14 days, preemergence
[3] = Preemergence, 500 g ai/ha, scale 0 to 100, 0 no effect, 100 complete control
[4] = 125 g ai/ha, scale 0 (no effect) to 100 (complete control), preemergence
[5] = 250 g ai/ha, scale 0 to 100 (0 no effect, 100 complete control), preemergence
[6] = 62 g ai/ha, scale 0 to 100 (0 no effect, 100 complete control)
[7] = 125 g ai/ha, scale of 0 to 100, 0 is no effect, 100 is complete control
[8] = 250 g ai/ha, scale of 0 to 100, 0 is no effect, 100 is complete control
[9] = 500 g ai/ha, visual rating after 12 to 14 days, scale 0 to 100 (0 no effect, 100 complete control)
[10] = Postemergence, 500 g ai/ha, 0 to 100 scale, 0 no effect, 100 complete control
[11] = Postemergence, 2000 g ai/ha, 0 to 100 scale, 0 no effect, 100 complete control
[12] = Preemergence, 500 g ai/ha, visual rating, 0 to 100 scale (0 no effect, 100 complete control)
[13] = Preemergence, 2000 g ai/ha, visual rating, 0 to 100 scale (0 no effect, 100 complete control)

Structure (SMILES): CC(=NO)c1cccc(NC(=O)c2cc(C(C)(C)C)nn2C)c1 [Compound 102]
- Plant response rating (0 = no effect, 100 = complete control), Kochia (kochia; 62 g ai/ha, preemergence): 0
- Plant response rating, Kochia (kochia; [2]): 30
- Kochia plant response rating (kochia; [3]): 60
- Plant response rating (0 = no effect, 100 = complete control), Cupgrass, Woolly (woolly cupgrass; 62 g ai/ha, preemergence): 0
- Plant response rating, Cupgrass, Woolly (woolly cupgrass; [4]): 10
- Plant response rating, Cupgrass, Woolly (woolly cupgrass; [5]): 20
- Cupgrass, Woolly plant response rating (woolly cupgrass; [3]): 40
- Sedge, Umbrella plant response rating [1, 6]: 50
- Sedge, Umbrella plant response rating [1, 7]: 70
- Sedge, Umbrella plant response rating [1, 8]: 70
- Plant response rating, Sedge, Umbrella [1, 9]: 80
- Ducksalad plant response rating (ducksalad; [6]): 20
- Ducksalad plant response rating (ducksalad; [7]): 80
- Ducksalad plant response rating (ducksalad; [8]): 90
- Plant response rating, Ducksalad (ducksalad; [9]): 90
- Plant response rating (0 = no effect, 100 = complete control), Goosegrass (goosegrass; 62 g ai/ha, preemergence): 90
- Plant response rating, Goosegrass (goosegrass; [2]): 100
- Goosegrass plant response rating (goosegrass; [3]): 100
- Plant response rating (0 = no effect, 100 = complete control), Cocklebur (cocklebur; 62 g ai/ha, preemergence): 10
- Plant response rating, Cocklebur (cocklebur; [4]): 20
- Plant response rating, Cocklebur (cocklebur; [5]): 20
- Cocklebur plant response rating (cocklebur; [3]): 70
- Pigweed plant response rating (redroot pigweed; [10]): 95
- Plant response rating, Pigweed (redroot pigweed; [11]): 100
- Pigweed plant response rating (redroot pigweed; [12]): 80
- Pigweed plant response rating (redroot pigweed; [13]): 90
- Barnyardgrass plant response rating (barnyardgrass; [10]): 55
- Plant response rating, Barnyardgrass (barnyardgrass; [11]): 75
- Barnyardgrass plant response rating (barnyardgrass; [12]): 70
- Barnyardgrass plant response rating (barnyardgrass; [13]): 85
- Foxtail, Giant plant response rating (giant foxtail; [10]): 45
- Plant response rating, Foxtail, Giant (giant foxtail; [11]): 65
- Foxtail, Giant plant response rating (giant foxtail; [12]): 60
- Foxtail, Giant plant response rating (giant foxtail; [13]): 85
- Plant response rating (0 = no effect, 100 = complete control), Lambsquarters (lambsquarters; 62 g ai/ha, preemergence): 0
- Plant response rating, Lambsquarters (lambsquarters; [2]): 70
- Lambsquarters plant response rating (lambsquarters; [3]): 100
- Plant response rating (0 = no effect, 100 = complete control), Bermudagrass (bermudagrass; 62 g ai/ha, preemergence): 100
- Plant response rating, Bermudagrass (bermudagrass; [4]): 100
- Plant response rating, Bermudagrass (bermudagrass; [5]): 100
- Bermudagrass plant response rating (bermudagrass; [3]): 100
- Plant response rating (0 = no effect, 100 = complete control), Morningglory (morningglory; 62 g ai/ha, preemergence): 30
- Plant response rating, Morningglory (morningglory; [2]): 70
- Morningglory plant response rating (morningglory; [3]): 80
